From the NIST ThermoML archive (doi:10.1021/je700126z)
Numbers after ± are expanded uncertainties.

Experiments:
[1] = 298.15 K; 101.33 kPa; Liquid; Vibrating tube method
[2] = refractive index (Na D-line) (dimensionless); conditions: 298.15 K; 101.33 kPa; Liquid; Standard Abbe refractometry

| Compound | mass density [1] | refractive index [2] |
| --- | --- | --- |
| CCCCCCCC[n+]1ccn(C)c1.F[B-](F)(F)F [1-methyl-3-octylimidazolium tetrafluoroborate] | 1104.42 ± 6.6 kg/m3 | 1.43329 ± 0.0012 |
| C1CCCCC1 [cyclohexane] | 773.76 ± 0.24 kg/m3 | 1.42403 ± 0.0007 |
| CCCCCC [hexane] | 655.06 ± 0.19 kg/m3 | 1.37287 ± 0.00068 |
| c1ccsc1 [thiophene] | 1058.5 ± 0.12 kg/m3 | 1.52581 ± 0.00068 |
